Laboratory results as given in US20260109664A1, “COMPOUNDS FOR USE AS MEDICAMENTS” (priority 2022, published 2026).

Tests used:
[1] = test system: production of 4-methylphenol by C. difficile; test: HPLC of C. difficile monocultures: 4-methylphenol (p-cresol) production; type: cell-based, Clostridioides difficile; conditions: 630Δerm, 8 hours, 1.5 mg/ml p-HPA with matched 6.6 mM compound, normalised to OD590 nm, FIG. 14
Experimental: C. difficile monocultures were established in the presence of the following compounds EX1, EX3, EX5 and EX8.
Samples of 630Δerm were collected following growth in minimal media with 1% DMSO v/v for 8 hours with 1.5 mg/ml p-HPA with matched (6.6 mM) concentrations of compounds EX1, EX3, EX5 and EX8. At the time of sample collection, the OD590 nm of the culture was measured. Samples were immediately filter sterilised using 0.22 μm filters, then frozen at −80° C. prior to HPLC analysis.
The filter-sterilized samples were transferred to HPLC vials and analysed immediately by injecting onto the HPLC column. Separations were achieved by utilizing an Acclaim 120 (Thermofisher), C18, 5 μm (4.6×150 mm), with the mobile phase consisting of ammonium formate (10 mM, pH 2.7) and […] (v/v; 50:50) at a flow rate of 1400 μl/min. p-HPA and p-cresol were detected by the diode array detector (PDA; DAD 3000) set at 280 nm. Peak identity was confirmed by measuring the retention time of commercially available p-HPA and p-cresol, and determination of absorbance spectra was performed using the DAD. A calibration curve of each compound was generated by Chromeleon (Dionex software) using known amounts of the reference standards (0-5 mg/ml) dissolved in media and injected onto the column, and the amount of p-HPA and p-cresol in the samples was determined. Samples from three independent biological replicates were analysed compared to media controls and standard curves. The limit of detection for p-HPA and p-cresol are 0.001 and 0.0005 mg/ml, respectively. The p-cresol concentration was normalised to growth by using the OD590 nm measured at the time of sample collection.

C. difficile 630Δerm [2] = test: Toxicity growth curves (OD590 nm) of C. difficile monoculture in minimal media; type: cell-based, Clostridioides difficile; conditions: 8-hour growth curve; for effect on the growth of C. difficile (growth curve, OD590 nm): compound 6.6 mM in MM with 1% DMSO, FIGS. 1a to 5b
Experimental: (§1) Compounds EX1 to EX5 were separately tested to determine their toxicity to C. difficile and E. coli.
(§2) Each compound was dissolved to 6.6 mM in minimal media (MM) with 1% DMSO based on the MM described by Cartman et al. in Appln. Environ. Microbiol, 2010, 76, 1103 and the concentration was matched in a 1:1 ratio of the compound to the substrate p-HPA.
(§3) To determine growth rates of C. difficile and E. coli in the presence of compounds EX1 to EX5, three colonies of C. difficile or three colonies of E. coli were used to inoculate a primary culture of 10 mL MM in 50 cm^3 vented tissue culture flasks (Thermo Scientific). Following overnight incubation on a shaking platform at 50 rpm, the primary culture was back diluted in MM to OD590 nm 0.5 using a Fisherbrand™ Digital Colorimeter model 4.5 (Fisher Scientific). 1 ml of the OD590 nm 0.5 culture was inoculated into 10 ml of MM in 50 cm^3 vented tissue culture flasks with and without 4-hydroxyphenylacetic acid and the relevant compound (EX1 to EX5).
(§4) OD590 nm readings were determined every hour for eight hours using a Fisherbrand™ Digital Colorimeter model 4.5 (Fisher Scientific).
(§5) Growth curves denoting growth over an 8-hour time period for C. difficile and E. coli in MM with the presence of 4-hydroxyphenylacetic acid and inhibitors EX1 to EX5, each at 6.6 mM. Absorbance was measured at OD590 nm. *p<0.05, **p<0.01, samples represent a minimum of three biological replicates graphed in GraphPad prism (v9). Raw absorbance was normalised using a blank MM control.

E. coli [3] = test: Toxicity growth curves (OD590 nm) of E. coli monoculture in minimal media; type: cell-based, Escherichia coli; conditions: compound 6.6 mM in MM with 1% DMSO, 8-hour growth curve, FIGS. 1a to 5b
Experimental: as §1, §2, §3, §4, §5

[4] = test system: production of 4-methylphenol by C. difficile; test: HPLC of C. difficile / E. coli co-culture: 4-methylphenol production; type: cell-based, Clostridioides difficile; conditions: 630Δerm and E. coli co-culture, no normalisation to OD590 nm, FIG. 15
Experimental: A C. difficile 630Δerm and E. coli co-culture was established (as per the methods previously described) in the presence of compound EX3.
Following co-culture, CFU assays were undertaken to determine relative survival of C. diff and E. coli. The remaining sample was filter sterilised (0.22 μm filters), then frozen at −80° C. prior to the HPLC analysis. HPLC analysis was carried out as described above (HPLC monocultures) with the exception of there being no normalisation of the 4-methylphenol concentration to OD590 nm.

E. coli [5] = test: Co-culture of C. difficile and E. coli, CFU percentages: E. coli; type: cell-based, Escherichia coli; conditions: MM + 6.6 mM p-HPA + 6.6 mM inhibitor, 1% DMSO, 14 hours co-culture, FIGS. 7 to 13
Experimental: (§6) Compounds EX1 to EX7 were tested to determine their ability to reduce the growth of C. difficile relative to E. coli.
(§7) C. difficile 630Δerm and E. coli were grown overnight in MM. C. difficile was back diluted to an OD590 nm of 0.2. 18 μl of the back dilution was added to 1.8 ml of the test conditions: MM, MM+6.6 mM p-HPA, MM+6.6 mM inhibitor, and MM+6.6 mM p-HPA+6.6 mM inhibitor, in a 24 well plate. Each inhibitor was dissolved in DMSO such that the final concentration in the 24 well plate was 1% v/v. C. difficile was grown for 8 hours before E. coli underwent back dilution to an OD590 nm of 0.2 and 18 μl was inoculated into the C. difficile wells to give the co-culture. The co-culture was grown for 14 hours. The proportion of the co-cultures made up by C. difficile and E. coli were determined by colony-forming units per millilitre (CFU/ml) assays with co-cultures plated on to BHIS plates in duplicate with selective media for each species. C. difficile was selected for using cycloserine (250 mg/l) and cefoxitin (8 mg/l) whilst E. coli was selected for using vancomycin (4 mg/l). […] CFUs were counted on the following day. CFU data is presented using CFU percentages which were calculated by dividing the number of CFUs for each species by the total number of CFUs for both E. coli and C. difficile and multiplying by 100. […] Data was analysed by linear regression carried using Stata17.

C. difficile 630Δerm [6] = test: Co-culture of C. difficile and E. coli, CFU percentages: C. difficile; type: cell-based, Clostridioides difficile; conditions: MM + 6.6 mM p-HPA + 6.6 mM inhibitor, 1% DMSO, 14 hours co-culture, FIGS. 7 to 13
Experimental: as §6, §7

SMILES	production of 4-methylphenol by C. difficile (HPLC, monoculture) [1]	effect on the growth of C. difficile (growth curve, OD590 nm) (C. difficile 630Δerm [2])	effect on the growth of E. coli (growth curve, OD590 nm) (E. coli [3])	further results
NC(=O)Cc1ccc(O)cc1 [EX1]	reduced	no effect on the growth	inhibited the growth	
OCCc1ccc(O)cc1 [EX2]		toxic	toxic	
N#CCc1ccc(O)cc1 [EX3]	reduced		inhibited the growth	effect on the growth of C. difficile when both compound and p-HPA present (C. difficile 630Δerm [2]; compound 6.6 mM + p-HPA 6.6 mM (1:1) in MM): inhibited the growth; production of 4-methylphenol by C. difficile (HPLC, co-culture with E. coli) [4]: reduced
O=C(O)CCc1ccc(O)cc1 [EX4]		no effect on the growth		
O=C(O)c1ccc(O)cc1 [EX5]	reduced	no effect on the growth	no effect on the growth	
CC(C)(C(=O)O)c1ccc(O)cc1 [EX6]				impact on the growth of E. coli in co-culture with C. difficile (E. coli [5]): little or no negative impact; inhibition of the growth of C. difficile in co-culture with E. coli (CFU percentage) (C. difficile 630Δerm [6]): able to inhibit the growth
O=C(O)Cc1ccc(O)cc1 [EX7]				impact on the growth of E. coli in co-culture with C. difficile (E. coli [5]): little or no negative impact; inhibition of the growth of C. difficile in co-culture with E. coli (CFU percentage) (C. difficile 630Δerm [6]): able to inhibit the growth
COC(=O)Cc1ccc(O)cc1 [EX8]	reduced			
